Measurements taken from patent US12415777B2, “Fluorene derivative, and production method and use for same” (Osaka Gas Chemicals Co., Ltd., priority 2020, dated 2025).

Tests used:
Solvent solubility test = format: physicochemical; parameters: key: A: Soluble; B: Soluble, but undissolved residue was visually confirmed; C: Insoluble; details: 3% by mass, stood overnight at room temperature (15 to 25° C.), visually observed; for Solubility in Dioxane: 1,4-dioxane; for Solubility in IPA: isopropanol; for Solubility in MEK: methyl ethyl ketone; for Solubility in MIBK: methyl isobutyl ketone; for Solubility in THF: tetrahydrofuran
Experimental: (Solvent Solubility Test)
For each sample and solvent, a sample and a solvent shown in Table 1 below were mixed in a concentration of 3% by mass, and a mixture was shaken by hand for about 10 minutes, and then allowed to stand overnight at a room temperature (temperature of 15 to 25° C.). After that, the solubility of the sample was visually observed and evaluated according to the following criteria. • A: Soluble • B: Soluble, but undissolved residue was visually confirmed • C: Insoluble (Flexural Test)
The results of the solubility test of the fluorene derivatives obtained in Examples 1 to 3 and Comparative Example 1 are shown in Table 1. In Table 1, IPA represents isopropanol, MEK represents methyl ethyl ketone, MIBK represents methyl isobutyl ketone, dioxane represents 1,4-dioxane, and THF represents tetrahydrofuran. As NIPAM-FL, the one prepared in Example 3A was used.

[1] = 5% mass reduction temperature (TG-DTA); format: physicochemical; details: nitrogen atmosphere, 50 to 400° C., heating rate 10° C./min
Experimental: (5% Mass Reduction Temperature)
The temperature, at which the mass of the sample is reduced by 5% by mass, was measured using a Thermogravimeter-Differential Thermal Analyzer (TG-DTA) (manufactured by PerkinElmer, Inc., “TGA-4000”) in a nitrogen atmosphere, under the condition of a measurement temperature range of 50 to 400° C. with a heating rate of 10° C./min.

NC(=O)CCC1(CCC(N)=O)c2ccccc2-c2ccccc21 [AAD-FL, 9,9-di-(β-carbamoyl-ethyl)fluorene, reference compound]
Solubility in Dioxane (Solvent solubility test): C | Solubility in Acetone (Solvent solubility test): C | Solubility in Chloroform (Solvent solubility test): C | Solubility in Ethanol (Solvent solubility test): C | Solubility in Ethyl acetate (Solvent solubility test): C | Solubility in Hexane (Solvent solubility test): C | Solubility in Methanol (Solvent solubility test): C | Solubility in Toluene (Solvent solubility test): C | Solubility in Water (Solvent solubility test): C | Solubility in IPA (Solvent solubility test): C | Solubility in MEK (Solvent solubility test): C | Solubility in MIBK (Solvent solubility test): B | Solubility in THF (Solvent solubility test): C | 5% mass reduction temperature [1]: 320 °C

CC(C)NC(=O)CCC1(CCC(=O)NC(C)C)c2ccccc2-c2ccccc21 [NIPAM-FL, 9,9-bis[2-(N-isopropylcarbamoyl)ethyl]fluorene]
Solubility in Dioxane (Solvent solubility test): C | Solubility in Acetone (Solvent solubility test): C | Solubility in Chloroform (Solvent solubility test): C | Solubility in Ethanol (Solvent solubility test): C | Solubility in Ethyl acetate (Solvent solubility test): C | Solubility in Hexane (Solvent solubility test): C | Solubility in Methanol (Solvent solubility test): A | Solubility in Toluene (Solvent solubility test): C | Solubility in Water (Solvent solubility test): C | Solubility in IPA (Solvent solubility test): C | Solubility in MEK (Solvent solubility test): C | Solubility in MIBK (Solvent solubility test): B | Solubility in THF (Solvent solubility test): C | 5% mass reduction temperature [1]: 257 °C

CN(C)C(=O)CCC1(CCC(=O)N(C)C)c2ccccc2-c2ccccc21 [DMAA-FL, 9,9-bis[2-(N,N-dimethylcarbamoyl)ethyl]fluorene]
Solubility in Dioxane (Solvent solubility test): C | Solubility in Acetone (Solvent solubility test): C | Solubility in Chloroform (Solvent solubility test): A | Solubility in Ethanol (Solvent solubility test): A | Solubility in Ethyl acetate (Solvent solubility test): C | Solubility in Hexane (Solvent solubility test): C | Solubility in Methanol (Solvent solubility test): A | Solubility in Toluene (Solvent solubility test): C | Solubility in Water (Solvent solubility test): C | Solubility in IPA (Solvent solubility test): C | Solubility in MEK (Solvent solubility test): C | Solubility in MIBK (Solvent solubility test): A | Solubility in THF (Solvent solubility test): A | 5% mass reduction temperature [1]: 318 °C

CCN(CC)C(=O)CCC1(CCC(=O)N(CC)CC)c2ccccc2-c2ccccc21 [DEAA-FL, 9,9-bis[2-(N,N-diethylcarbamoyl)ethyl]fluorene]
Solubility in Dioxane (Solvent solubility test): A | Solubility in Acetone (Solvent solubility test): A | Solubility in Chloroform (Solvent solubility test): A | Solubility in Ethanol (Solvent solubility test): A | Solubility in Ethyl acetate (Solvent solubility test): A | Solubility in Hexane (Solvent solubility test): C | Solubility in Methanol (Solvent solubility test): A | Solubility in Toluene (Solvent solubility test): A | Solubility in Water (Solvent solubility test): C | Solubility in IPA (Solvent solubility test): A | Solubility in MEK (Solvent solubility test): A | Solubility in MIBK (Solvent solubility test): A | Solubility in THF (Solvent solubility test): A | 5% mass reduction temperature [1]: 294 °C
